Source: patent publication US20210379158A1, “METHOD FOR PREVENTING OR TREATING HEART FAILURE BY ADMINISTERING A MEDICAMENT CONTAINING AN ANTAGONIST OF CORTICOTROPIN RELEASING HORMONE RECEPTOR 2 (CRHR2)” (RaQualia Pharma Inc., priority 2017, published 2021)
No end group written: not given here.

How the values were obtained:
Crhr2 [1] = experiment: Pressure overload-induced cardiac dysfunction (TAC) in mice, continuous infusion initiated 1 wk after TAC; format: in vivo, mouse
Description: (§1) 8-10-week-old male mice were anesthetized with 50 mg/kg sodium pentobarbital, and osmotic minipumps (Alzet) containing Ucn2 (25, 50, 100 ng/g/day; Peptide Institute) or antisauvagine-30 (100 ng/g/day; Medical & Biological Laboratories) were implanted subcutaneously in the back for 4 wk.
TAC was performed under anesthesia and intubation. The chest was opened to visualize the aortic arch. The transverse aorta was then ligated between the right innominate and left common carotid arteries against a blunted 24-G needle with a 7-0 suture. The sham procedure was identical except that the aorta was not ligated.
(§2) Transthoracic echocardiography was performed on mice anesthetized with 50 mg/kg sodium pentobarbital. The left ventricular (LV) end-systolic diameter and the LV end-diastolic diameters were measured to calculate the % LV fractional shortening (% FS) in M-mode using an Acuson Sequoia C-512 (Siemens) with a 15-MHz probe. Systolic blood pressure (SBP) was measured by tail cuff method with an automatic sphygmomanometer (BP98A; Saffron) while the mice were restrained.
(§3) Mouse plasma Ucn2 and BNP were quantified by a mouse Ucn2 ELISA kit (Yanaihara), and by a BNP Enzyme Immunoassay kit (RayBiotech Inc.), respectively, according to the manufacturer's instructions.
Tissue samples were embedded in OCT compound (Sakura Finetek) and snap-frozen in liquid nitrogen. Left ventricular myocardium sections (6 μm slices) were stained with Picro-Sirius red with standard protocols and viewed with a BX51 microscope (Olympus). Cardiac fibrosis in 20 random images was quantified in ImageJ software.
We next investigated whether treatment with the Crhr2 antagonist, antisauvagine-30 (Rühmann et al., 1998, Proc. Natl. Acad. Sci. USA. 95:15264-15269), would attenuate the progression of established cardiac hypertrophy in mice. For this, continuous antisauvagine-30 infusion was initiated 1 wk after TAC surgery (FIG. 19).

Crhr2 [2] = experiment: Continuous Ucn2 infusion in cardiomyocyte-specific Crhr2 knockout mice and control mice; format: in vivo, mouse
From the text: Crhr2^tm1a(KOMP)Wtsi mice on a C57BL/6 background were generated by the Knock Out Mice Program (KOMP) at the University of California Davis (Davis, Calif.) and Children's Hospital Oakland Research Institute (Oakland, Calif.). Crhr2^tm1a(KOMP)Wtsi mice were bred with mice expressing Flp recombinase to obtain Crhr2 conditional KO mice (Crhr2^flox/flox mice). Crhr2^flox/flox mice were backcrossed at least 10 times to wild-type C57BL/6 genetic background mice. Tamoxifen-inducible, cardiomyocyte-specific Crhr2 knockout mice (cmc-Crhr2-KOs) were generated by intercrossing the αMHC-CreERT2 line to Crhr2^flox/flox mice (Takefuji et al., 2012, Circulation. 126:1972-1982). Cre-mediated recombination of floxed alleles was induced with an intraperitoneal injection of 1 mg tamoxifen dissolved in 100 μl Miglyol for 5 consecutive days. Vehicle-treated mice received Miglyol only, and αMHC-CreERT2+/−-Crhr2^wt/wt mice were used as controls. Experiments were performed 2 wk after the end of induction.
as §1, §2
To examine the functional significance of Crhr2 in cardiomyocytes in vivo, we generated mice with tamoxifen-inducible cardiomyocyte-specific Crhr2 deficiency (cmc-Crhr2-KO) by mating αMHC-CreERT2 mice with Crhr2^flox/flox mice.

[3] = acute intravenous injection; cited from earlier work
Crhr2 [4] = experiment: Continuous Ucn2 infusion through subcutaneous osmotic pump in mice for 4 wk; format: in vivo, mouse
Description: as §1, §2, §3
To examine the effect of long-term Ucn2 up-regulation in vivo, we implanted mice with osmotic pumps that release Ucn2.

Substance | TAC-induced cardiac dysfunction (Crhr2 [1]; 4 wk of sustained Ucn2 infusion initiating 1 wk after TAC surgery) | fractional shortening decrease (Crhr2 [2]; cmc-Crhr2-KO mice, 4 wk of continuous Ucn2 infusion 100 ng/g/day, FIG. 13) | Ucn2-induced hypertrophic response (left ventricular weight/tibia length ratio) (Crhr2 [2]; cmc-Crhr2 KO mice, 4 wk Ucn2 100 ng/g/day, FIG. 12) | fractional shortening (Crhr2 [2]; control mice, 4 wk of continuous Ucn2 infusion 100 ng/g/day, FIG. 13) | cardiac contraction [3] | left ventricular fractional shortening (Crhr2 [4]; 4 wk Ucn2 infusion 100 ng/g/day, FIG. 8) | systolic blood pressure (Crhr2 [4]; 4 wk Ucn2 infusion 100 ng/g/day, FIG. 9) | blood levels of brain natriuretic peptide (BNP) (Crhr2 [4]; 4 wk Ucn2 infusion 100 ng/g/day, FIG. 10) | cardiac hypertrophy, left ventricular weight to tibia length ratio (Crhr2 [4]; 4 wk Ucn2 infusion 25, 50 or 100 ng/g/day, FIGS. 6 and 7) | circulating Ucn2 levels (Crhr2 [4]; after 4 wk of sustained Ucn2 infusion (25, 50 or 100 ng/g/day), osmotic pump, blood, FIG. 5) | plasma BNP (Crhr2 [1]; TAC mice, 100 ng/g/day infusion from 1 wk after TAC, day 35, FIG. 22) | cardiac hypertrophy (left ventricular weight/tibia length ratio) (Crhr2 [1]; TAC mice, 100 ng/g/day infusion from 1 wk after TAC, day 35, FIG. 23) | cardiac fibrosis (fibrosis area) (Crhr2 [1]; TAC mice, 100 ng/g/day infusion from 1 wk after TAC, day 35, FIG. 24) | systolic blood pressure (Crhr2 [1]; TAC mice, 100 ng/g/day infusion from 1 wk after TAC, FIG. 20) | cardiac output (left ventricular fractional shortening) (Crhr2 [1]; TAC mice, 100 ng/g/day infusion from 1 wk after TAC, FIG. 21)
urocortin 2 (VILSLDVPIGLLRILLEQARYKAARNQAATNAQILAHV; ends and bridges not checked; UniProt Q99ML8 73-110, looked up) [Ucn2, Ligand/agonist of Crhr2, obtained from Peptide Institute] | accelerated TAC-induced cardiac dysfunction | significantly attenuated | failed to show a Ucn2-induced hypertrophic response | decreased fractional shortening | accelerate cardiac contraction | decrease in left ventricular fractional shortening | without significantly affecting systolic blood pressure | significantly increased | increased left ventricular weight to tibia length ratio in a dose-dependent manner | elevated similar to those observed after TAC |  |  |  |  | 
antisauvagine-30 |  |  |  |  |  |  |  |  |  |  | strong reduction | strong reduction | strong reduction | without significantly affecting systolic blood pressure | protected mice from further deterioration of cardiac output
